Read-outs that look alike come from different tables or passages of the source.
How the values were obtained:
Assay type in all cases: in vivo
[1] = system: rat paw swelling induced by monosodium urate (MSU); assay: rat paw swelling model induced by monosodium urate (MSU); conditions: for inhibition in vivo at 90 mg/kg / inhibition in vivo at 0.36 mg/kg / inhibition in vivo at 1.8 mg/kg / inhibition in vivo at 9 mg/kg / change in vivo at 90 mg/kg: Rattus norvegicus, po; for inhibition in vivo at 90 mg/kg / inhibition in vivo at 0.36 mg/kg / inhibition in vivo at 1.8 mg/kg / inhibition in vivo at 9 mg/kg: 1 h, read-out: Swelling inhibition rate; for inhibition in vivo at 0.36 mg/kg: dosage 0.36 mg/kg; for inhibition in vivo at 1.8 mg/kg: dosage 1.8 mg/kg; for inhibition in vivo at 9 mg/kg: dosage 9 mg/kg; for change in vivo at 90 mg/kg: read-out: Swelling degree; for Mean volume of paw after administration: 1 h after onset of inflammation (50 μL 2% MSU)
Text: Gout is a disease unique to human, and gouty arthritis is an inflammatory reaction caused by the deposition of monosodium urate (MSU) in local joint tissues. Since purine metabolism pathways in some mammals such as mice and rabbits are different from those in humans, it is impossible to construct a gouty arthritis model by the method of interfering with purine metabolism disorders, so the most direct method for causing gouty arthritis is to directly inject MSU into the joint cavity of the model animal. The model is only used for simulating local joint inflammation of gout, is suitable for observation of local arthritis symptoms, is a common method for screening anti-inflammatory effects of gout drugs at present, and has the advantages of stability, easy operation and the like. (Reference: Li Na, Hua Long, and Yuan Hui. Research progress of gout animal models [J]. Medical theory and practice, 2016(24).
The anti-gout effect of the compound prepared in the above Example was detected by using a rat paw swelling model induced by monosodium urate (MSU), and the control sample was methylprednisolone.
Experimental method: MSU was used as an inflammatory agent, injected subcutaneously into the hind paws of rats to cause paw swelling, and then the volume of the paws was measured, and the swelling rates and swelling inhibition rates of the treatment group and the control group were compared. On the day of the experiment, the volume of right hind paw (ml) of each rat was measured firstly, and then after the onset of inflammation, the volume of right hind paw was measured so that the difference of volume of paw before and after inflammation was swelling degree, and the swelling inhibition rate of paw (swelling inhibition rate %=(C−T)/C*100%); C=swelling rate of the control group %, and T=swelling rate of the treatment group) was calculated. This method is one of the commonly used methods for screening anti-inflammatory effects of gout drugs, and the model is stable and easy to operate.
(2) One week before the subcutaneous injection of MSU into the feet and soles of the rats, the rats were given different doses of the test drugs, and the drugs were given by gavage once a day, for seven consecutive days. The circumference of the right hind paw was marked and measured before the last administration, and the average value of the two measurements was taken as the standard. 1 h after the last administration, animals in other groups were given 50 μL of 2% MSU in addition to the blank control group, and the paw circumference was measured 1 h after the onset of inflammation. […]

[2] = system: carrageenan-induced mouse paw swelling; assay: carrageenan-induced mouse paw swelling model; conditions: for Circumference of the paw after administration: 180 min after onset of inflammation (0.5% carrageenan); for inhibition in vivo at 0.26 mg/kg / inhibition in vivo at 13 mg/kg / inhibition in vivo at 130 mg/kg / change in vivo at 130 mg/kg: Mus musculus, po, 3 h; for inhibition in vivo at 0.26 mg/kg: dosage 0.26 mg/kg; for inhibition in vivo at 0.26 mg/kg / inhibition in vivo at 13 mg/kg / inhibition in vivo at 130 mg/kg: read-out: Swelling inhibition rate; for inhibition in vivo at 13 mg/kg: dosage 13 mg/kg; for change in vivo at 130 mg/kg: read-out: Swelling degree
Method: The anti-inflammatory effects of the compounds prepared in the above Examples were detected using a carrageenan-induced mouse paw swelling model, and the control sample was methylprednisolone:
Carrageenan-induced mouse paw swelling model is a classical acute inflammation model commonly used for evaluating or screening anti-inflammatory effects of drugs. When carrageenan is injected into the paw of mice, a series of reactions similar to human acute inflammation such as local capillary dilatation, increased vascular permeability, exudation and edema can be caused, so the model can be widely used in the evaluation of new drugs.
Reference for experimental method: Yang Huan, Cheng Xiao, Wang Yuehua, Du Guanhua. Effects of esculin on the swelling of toes and inflammation induced by carrageenan in mice [J]. Chinese Journal of New Drugs, 2016(25):2322.
On the day of the experiment, the circumference of right hind paw (cm) of each mouse was measured firstly, and then, after the onset of inflammation, the circumference of right hind paw was measured so that the difference of the circumferences of the paws before and after inflammation was swelling degree, and the swelling inhibition rate of paw (swelling inhibition rate %=(C−T)/C*100%); C=swelling rate of the control group %, and T=swelling rate of the treatment group) was calculated.
(2) Gavage administration was performed once a day for seven consecutive days. The circumference of the right hind paw was marked and measured before the last administration, and the average value of the two measurements was taken as the standard. 30 min after the last administration, 20 μL/mice of 0.5% carrageenan was injected into the right hind ankle of the mice to induce inflammation, and the circumference of paw was measured 180 min after the onset of inflammation. […]

ICR mice = conditions: p.o.
Method: The experiment was designed according to the “Technical Guideline for Acute Toxicity Test of Chemical Drugs” issued by the State Food and Drug Administration in March 2005. The doses administered were 4 g/kg, 4.91 g/kg, 6.14 g/kg, 7.68 g/kg, 9.6 g/kg, 12 g/kg, and 15 g/kg (the dose could be adjusted according to the actual test results), 12 ICR mice per dose group. If the administration volume is greater than 0.5 ml, it is better to perform the drug administration in two or more times (Note: according to the national standard GB 15193.3-2014, if multiple drug administrations are required, the time interval should be 4 h to 6 h each time, and the patient should be fasted on the day before drug administration).

[3] = SD rats, 90 mg/kg by gavage once a day for seven days, 1 h after onset of inflammation
[4] = rat, MSU-induced paw swelling, dosage 90 mg/kg
[5] = SD rats, 90 mg/kg by gavage once a day for seven days
[6] = ICR mice, 130 mg/kg by gavage once a day for seven days, 180 min after onset of inflammation
[7] = ICR mice, 130 mg/kg by gavage once a day for seven days
[8] = mouse, carrageenan-induced paw swelling
[9] = mouse, carrageenan-induced paw swelling, dosage 130 mg/kg

With `CCC(=O)OC/C(=N\O)[C@@]1(O)[C@H](O)C[C@H]2[C@@H]3CCC4=CC(=NO)C=C[C@]4(C)[C@@]3(F)[C@@H](O)C[C@@]21C` [Example 14, (2E)-2-((8S,9R,10S,11S,13S,14S,16R,17R)-9-fluoro-11,16,17-trihydroxy (hydroxyimino)-10,13-dimethyl-6,7,8,9,10,11,12,13,14,15,16,17-dodecahydro-3H-cyclopentane[α]phenanthrene-17-yl)-2-(hydroxyimino)ethyl propionate] the inhibition in vivo at 90 mg/kg [1, 3] was 85.6%, the inhibition in vivo at 0.36 mg/kg ([1]; rat, MSU-induced paw swelling) was 5.23% and the inhibition in vivo at 1.8 mg/kg ([1]; rat, MSU-induced paw swelling) was 34.2%. It also gave an inhibition in vivo at 9 mg/kg ([1]; rat, MSU-induced paw swelling) of 65.2%, an inhibition in vivo at 90 mg/kg [1, 4] of 86.3% and a change in vivo at 90 mg/kg [1, 3] of 47.5%. For the same compound, the Swelling value [1, 3] was 0.56 mL, the “Mean volume of paw after administration” value [1, 5] was 1.74 mL and the Swelling value [2, 6] was 0.03 cm. The “Circumference of the paw after administration” value (shortened to “Circumference of the paw”) [2, 7] was 1.45 cm, the inhibition in vivo at 0.26 mg/kg [2, 8] was 20.3% and the inhibition in vivo at 13 mg/kg [2, 8] was 49.2%. It also gave an inhibition in vivo at 130 mg/kg [2, 9] of 92.1%, a change in vivo at 130 mg/kg [2, 6] of 2.11% and an inhibition in vivo at 130 mg/kg [2, 6] of 89.1%. The Mortality (ICR mice; 4 g/kg) was 0/12, the Mortality (ICR mice; 4.91 g/kg) was 0/12 and the Mortality (ICR mice; 6.14 g/kg) was 0/12. The Mortality (ICR mice; 7.68 g/kg) was 0/12, the Mortality (ICR mice; 9.6 g/kg) was 1/12 and the Mortality (ICR mice; 12 g/kg) was 1/12. The Mortality (ICR mice; 15 g/kg) was 3/12.
For `CC1(C)O[C@@H]2C[C@H]3[C@@H]4C[C@H](F)C5=CC(=NO)C=C[C@]5(C)[C@@]4(F)[C@@H](O)C[C@]3(C)[C@]2(/C(CO)=N/O)O1` [Example 8, (2S,6aS,6bR,7S,8aS,8bR,11aR,12aS,12bS)-2,6b-difluoro-7-hydroxy-8b-((E)-2-hydroxy-1-(hydroxyimino)ethyl)-6a,8a,10,10-tetramethyl-1,2,6a,6b,7,8,8a,8b,11a,12,12a,12b-dodecahydro-4H-naphtho[2′,1′:4,5]indeno[1,2-d][1,3]dioxol-4-one oxime], the inhibition in vivo at 90 mg/kg [1, 3] was 91.8%, the inhibition in vivo at 0.36 mg/kg ([1]; rat, MSU-induced paw swelling) was 17.2% and the inhibition in vivo at 1.8 mg/kg ([1]; rat, MSU-induced paw swelling) was 32.1%. It also gave an inhibition in vivo at 9 mg/kg ([1]; rat, MSU-induced paw swelling) of 41.2%, an inhibition in vivo at 90 mg/kg [1, 4] of 93.5% and a change in vivo at 90 mg/kg [1, 3] of 26.8%. For the same compound, the Swelling value [1, 3] was 0.33 mL, the “Mean volume of paw after administration” value [1, 5] was 1.56 mL and the Swelling value [2, 6] was 0.02 cm. For the same compound, the “Circumference of the paw” value [2, 7] was 1.49 cm, the inhibition in vivo at 0.26 mg/kg [2, 8] was 24.5% and the inhibition in vivo at 13 mg/kg [2, 8] was 46.8%. For the same compound, the inhibition in vivo at 130 mg/kg [2, 9] was 93.2%, the change in vivo at 130 mg/kg [2, 6] was 1.36% and the inhibition in vivo at 130 mg/kg [2, 6] was 93%. The Mortality (ICR mice; 4 g/kg) was 0/12, the Mortality (ICR mice; 4.91 g/kg) was 0/12 and the Mortality (ICR mice; 6.14 g/kg) was 0/12. The Mortality (ICR mice; 7.68 g/kg) was 0/12, the Mortality (ICR mice; 9.6 g/kg) was 0/12 and the Mortality (ICR mice; 12 g/kg) was 0/12. For the same compound, the Mortality (ICR mice; 15 g/kg) was 1/12.
`CCON=C1C=C[C@@]2(C)C(=C1)[C@@H](C)C[C@@H]1[C@@H]2[C@@H](O)C[C@@]2(C)[C@H]1CC[C@]2(O)/C(CO)=N/OCC` [Example 9, (6S,8S,9S,10R,11S,13S,14S,17R,E)-17-((E)-1-(ethoxysimino)-2-hydroxyethyl)-11,17-dihydroxy-6,10,13-trimethyl-6,7,8,9,10,11,12,13,14,15,16,17-dodecahydro-3H-cyclopentane[α]phenanthrene-3-ketoO-ethyl oxime] was tested, and the Mortality (ICR mice; 4 g/kg) was 0/12, the Mortality (ICR mice; 4.91 g/kg) was 0/12 and the Mortality (ICR mice; 6.14 g/kg) was 0/12. The Mortality (ICR mice; 7.68 g/kg) was 0/12, the Mortality (ICR mice; 9.6 g/kg) was 0/12 and the Mortality (ICR mice; 12 g/kg) was 0/12. For the same compound, the Mortality (ICR mice; 15 g/kg) was 2/12.
Work on `C[C@H]1C[C@@H]2[C@H]([C@@H](O)C[C@@]3(C)[C@H]2CC[C@]3(O)C(=O)CO)[C@@]2(C)C=CC(=O)C=C12` [Methylprednisolone, methylprednisolone, reference compound] yielded an inhibition in vivo at 90 mg/kg [1, 3] of 53.8%, an inhibition in vivo at 0.36 mg/kg ([1]; rat, MSU-induced paw swelling) of 12.3% and an inhibition in vivo at 1.8 mg/kg ([1]; rat, MSU-induced paw swelling) of 17.6%. For the same compound, the inhibition in vivo at 9 mg/kg ([1]; rat, MSU-induced paw swelling) was 43.5%, the inhibition in vivo at 90 mg/kg [1, 4] was 55.4% and the change in vivo at 90 mg/kg [1, 3] was 152%. The Swelling value [1, 3] was 1.87 mL, the “Mean volume of paw after administration” value [1, 5] was 3.1 mL and the Swelling value [2, 6] was 0.15 cm. For the same compound, the “Circumference of the paw” value [2, 7] was 1.63 cm, the inhibition in vivo at 0.26 mg/kg [2, 8] was 12.1% and the inhibition in vivo at 13 mg/kg [2, 8] was 31.4%. For the same compound, the inhibition in vivo at 130 mg/kg [2, 9] was 51.2%, the change in vivo at 130 mg/kg [2, 6] was 10.1% and the inhibition in vivo at 130 mg/kg [2, 6] was 47.6%.

From patent US20230159583A1, “COMPOUND FOR TREATING GOUT, PREPARATION METHOD THEREFOR, AND USE THEREOF” (Huazhong Pharmaceutical Co., Ltd., priority 2020, published 2023)
